Data reported in paper PMC9970268 (Cancer Research Communications, 2022).

Tests used:
GFP-HER2-BM cells = experiment: Apoptosis assay (Caspase-Glo3/7); assay type: cell-based, human; settings: 500 nmol/L, 48 hours
Method: (§1) Apoptosis was measured using a Caspase-Glo3/7 Luminescence Assay Kit as per manufacturer's instructions (Promega, Corp.), as described previously ([23]). Briefly, Caspase-3/7 Glo reagent was added and incubated at room temperature for 60 minutes and caspase-3/7 activities were determined by detecting luminescence using Tecan Microplate Reader M100 (Tecan). Data were calculated as fold change from vehicle. (n = 3 biologic replicates: with three technical replicates each).

MDA-MB-231 cells = experiment: Apoptosis assay (Caspase-Glo3/7); assay type: cell-based, human; settings: 500 nmol/L, 48 hours
Method: as §1

MDA-MB-468 cells = experiment: Apoptosis assay (Caspase-Glo3/7); assay type: cell-based, human; settings: 500 nmol/L, 48 hours
Method: as §1

[1] = tested on: MDA-MB-231, GFP-HER2-BM, and MDA-MB-468 cells; experiment: Apoptosis assay (Caspase-Glo3/7), cell line not specified; assay type: cell-based, human; settings: 500 nmol/L, 48 hours
Method: as §1

[2] = molecular target: T1, Rac1(G15A) interaction with Vav2 (Homo sapiens, UniProt P63000, G15A); experiment: Rac1 (G15A) pulldown assay, Vav2; assay type: binding; settings: 250 nmol/L, 1 hour preincubation, MDA-MB-231 cell lysates
T1 construct: purchased Cell Biolabs; host or cells: GEF from MDA-MB-231 lysate
Method: MDA-MB-231 cells were lysed in 1% Triton X-100, 20 mmol/L HEPES, pH 7.4, 150 mmol/L NaCl, 5 mmol/L MgCl2, and protease inhibitors, and processed as described previously ([20]). Equal amounts of protein from cleared lysates were incubated for 1 hour at 4°C with glutathione-agarose beads conjugated to GST-Rac1 and GST-Cdc42(G15A) nucleotide-free mutant (Cell Biolabs) that were preincubated (for 1 hour) with vehicle or Rac/Cdc42 inhibitors, as indicated. The beads were washed, and pulldowns were immunoblotted for Vav2 or Ect2.

Rac1 [3] = molecular target: T2, Rac1 (Homo sapiens, UniProt P63000); experiment: Nucleotide association assay, induced by EDTA; settings: read-out: inhibition of EDTA-induced loading of N-MAR-GTP on Rac1
Method: The nucleotide loading on purified Rho GTPases was monitored using a fluorophore-based Rho GEF Exchange Assay Kit as per manufacturer's instructions (Cytoskeleton, Inc.). Drugs were diluted in exchange buffer and incubated with Rac1, Cdc42, or RhoA. […] After the initial five readings (T0), GEFs (Dbs or Vav2) or Ethylenediaminetetraacetic acid (EDTA) was added to stimulate exchange and readings were obtained every 30 seconds for at least 60 cycles.
After initial five readings, the exchange factor Dbs was added to catalyze the loading of N-
B. 2µM Rac1 was incubated with 0 or 2 µM

Rac1 [4] = molecular target: T2, Rac1; experiment: Rac activation pulldown assay in MDA-MB-231 cells; settings: MDA-MB-231, 24 hours, various concentrations
Method: (§2) Rac-GTP and Cdc42-GTP were detected using Rac Activity Assay or Cdc42 Activity Assay, as per manufacturer's instructions (Cell Signaling Technology). Briefly, total cell lysates were quantified and added equally to PAK-p21–binding domain conjugated Sepharose beads. After 1 hour of incubation, beads were washed, bound proteins extracted in sample buffer, and Rac1-GTP and Cdc42-GTP detected by Western blot analysis using Rac1, Rac1b, or Cdc42 antibody. (n = 3 biological replicates).
(§3) Total cell lysates or pulldowns were Western blotted using routine procedures. The primary antibodies used were anti-Rac (Cell Signaling Technology), anti-Cdc42 (Abcam), anti-PAK1+PAK2+PAK3 (Cell Signaling Technology), anti-pPAK1 (T423)/PAK2 (T402; Abcam), anti-PAK1 + PAK2 + PAK3 (phospho T423; Abcam), Rac1B, and β-actin (Millipore-Sigma).

Rac1B splice variant = Rac1B splice variant (Homo sapiens, UniProt P63000); experiment: Rac1B activation pulldown assay in MDA-MB-468 cells; settings: MDA-MB-468, 500 nmol/L, 24 hours
Method: as §2, §3

Cdc42 [5] = molecular target: Cdc42 (Homo sapiens, UniProt P60953); experiment: Cdc42 activation pulldown assay in MDA-MB-231 cells; settings: MDA-MB-231, 24 hours
Method: as §2, §3

Rac1 [6] = molecular target: T2, Rac1; experiment: Rac activation pulldown assay (PAK p21-binding domain); settings: GFP-HER2-BM cells, 250 nmol/L, 24 hours
Method: as §2, §3

Cdc42 [7] = settings: metastatic breast cancer cells; cited from earlier work
[8] = tested on: HER-2–positive (HER2+) tumor; settings: immunocompromised mice; cited from earlier work
[9] = mice; cited from earlier work
in vivo = settings: rats and dogs
GLP toxicity studies = settings: GLP data from a Contact Research Organization; rodents or dogs

Chain of Cdc42 (Homo sapiens, UniProt P60953) (P60953 whole entry, the tested form may be a part): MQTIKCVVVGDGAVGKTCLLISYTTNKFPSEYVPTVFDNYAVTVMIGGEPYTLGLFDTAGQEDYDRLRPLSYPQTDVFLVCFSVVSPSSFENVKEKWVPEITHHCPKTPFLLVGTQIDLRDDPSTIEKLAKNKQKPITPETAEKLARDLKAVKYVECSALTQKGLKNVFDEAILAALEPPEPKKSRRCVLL

CCn1c2ccccc2c2cc(-n3nncc3-c3cccc(OC)c3)ccc21 [MBQ-168]
Caspase-3/7 activity (GFP-HER2-BM cells): significantly increased Caspase-3/7 activity
Caspase-3/7 activity (MDA-MB-231 cells): significantly increased Caspase-3/7 activity
Caspase-3/7 activity (MDA-MB-468 cells): significantly increased Caspase-3/7 activity
caspase-3/7 activity compared with the vehicle [1]: three to five times
Rac1(G15A) interaction with Vav2 [2]: no effect
inhibition at 2 µM (Rac1 [3]): ~50%
Rac.GTP incorporation (Rac1 [4]): inhibits Rac.GTP incorporation in a dose-dependent manner
activation and expression of Rac1B (Rac1B splice variant): inhibited activation of Rac1B, as well as expression
Cdc42 activity (Cdc42 [5]): reduced in a dose-dependent manner
Rac1-GTP (Rac1 [6]; attached and detached cell population): complete depletion
reduction of Rac1 activation (Rac1.GTP) (Rac1 [6]; attached cell population): approximately 100%
decrease in Rac1 expression (Rac1 [6]; detached cell population): approximately 100%

CCn1c2ccccc2c2cc(-n3nncc3-c3ccccc3)ccc21 [MBQ-167]
IC50 (Cdc42 [7]): 78 nM
inhibition of HER2+ tumor growth and metastasis to all organs [8]: approximately 90%
half-life in plasma [9]: approximately 2.5 hours
half-life in tumor tissue [9]: approximately 8 hours
NOAEL (in vivo): 1000 mg/kg
dose with no apparent toxicity (GLP toxicity studies): up to 1,000 mg/kg
